Source: US9044465B2, “Use of analgesic potentiating compounds to potentiate the analgesic properties of an analgesic compound” (priority 2008, dated 2015)

What was measured:
[1] = tested on: patients with acute sore throat and pharyngitis; test: Throat Soreness Scale (TSS), randomized double-blind placebo-controlled single-dose study; assay type: in vivo, human; details: single oral dose; for reduction in throat soreness (TSS) compared to placebo over 6 hours: 9 patients per group, vs placebo; for time from which TSS scores separated/differed from placebo: throat soreness difference at individual time points
Description: (§1) A total of 99 patients who met pre-specified inclusion and exclusion criteria, including moderate to severe throat pain intensity, as measured by a score≧7 on the Throat Soreness Scale (TSS), were admitted to the study.
(§2) There were 9 patients randomly assigned to each treatment group.
They were discharged home for hourly assessments up to 6 hours post-dose. Patients were allowed alternative analgesic medication at any time during the study.
(§3) The Throat Soreness Scale (TSS), Swollen Throat Scale (SwoTS), Difficulty Swallowing Scale (DSS), Difficulty Talking Scale (DTS), and other Quality-of-Pain Scales were completed at Baseline (immediately pre-treatment). Each of these measurement instruments is a 0-10 ordinal scale (see TEST PROTOCOL below).
(§4) After administration of the assigned study medication, patients completed (1) the Throat Soreness Scale, (2) the Swollen Throat Scale, (3) the Difficulty Swallowing Scale, and (4) the Improvement Assessment (IA) every 15 minutes up to 2 hours. Measurements on the Difficulty Talking Scale and the Quality-of-Pain Scales were obtained after these four assessments at 60 minutes and at 2 hours after treatment.
(§5) After these 2nd hour assessments, patients were discharged from the clinic with a Diary for entering responses on the Throat Soreness Scale, Swollen Throat Scale, Difficulty Swallowing Scale, Difficulty Talking Scale, and Improvement Assessment at 3, 4, 5, and 6 hours. After the 6 hour assessments, patients completed the Quality-of-Pain Scales.
The patient will be asked to evaluate his/her throat soreness using a 0-to-10 ordinal scale at Baseline as well as at 15, 30, 45, 60, 75, 90, 105 and 120 min and then hourly through 6 hours. The patient will be requested to swallow and instructed:
The primary endpoint variable is the Summed Difference in Throat Soreness at 6 hours, which is based on the Throat Soreness Scale. The patient will be asked to evaluate his/her throat soreness, using a 0-to-10 ordinal scale at baseline and at 15, 30, 45, 60, 75, 90, 105 minutes and 2, 3, 4, 5, and 6 hours. At each time point post-dose, a difference is calculated between the throat soreness at that time and the patient's baseline throat soreness. The time-weighted Summed Difference in Throat Soreness at each time point is calculated as the sum of the differences from baseline until that time point.

[2] = tested on: patients with acute sore throat and pharyngitis; test: Improvement Assessment (IA), same study; assay type: in vivo, human; details: single oral dose; for patients who achieved at least some improvement within 30 minutes (IA): first 30 minutes, placebo 1/9; for time from which IA scores separated/differed from placebo: improvement at individual time points; for patients who achieved at least 50% improvement over 6 hours (IA): over the 6-hour treatment period, placebo 2/9; for patients who achieved at least some improvement within 1 hour (IA): placebo 4/9
Text: as §1, §2, §4, §5
The patient will grade the improvement of his/her throat at 15, 30, 45, 60, 75, 90, 105, and 120 minutes, and at 3, 4, 5, and 6 hours post dose using a 5-category transitional scale. The patient will be instructed:
“Considering how your throat felt before you took the study medicine, circle the response that best describes how your throat is now.”
• Grading • no improvement • some improvement • 50% improvement • definite improvement • 100% improvement Data from this scale will be transcribed onto the appropriate Summary Data CRFs. Definite Improvement Level (DIL)

[3] = tested on: patients with acute sore throat and pharyngitis; test: Difficulty Swallowing Scale (DSS), same study; assay type: in vivo, human; details: single oral dose, vs placebo
Text: as §1, §2, §3, §4
as §5, with “Scales. […]” for “Scales.”

[4] = tested on: patients with acute sore throat and pharyngitis; test: Difficulty Talking Scale (DTS), same study; assay type: in vivo, human; details: single oral dose, vs placebo
Text: as §1, §2, §3, §4
as §5, with “Scales. […]” for “Scales.”

[5] = tested on: patients with acute sore throat and pharyngitis; test: Throat Function Index (TFI: swallowing and talking), same study; assay type: in vivo, human; details: single oral dose, vs placebo
Text: as §1, §2
**Difficulty Swallowing and Difficulty Talking comprise the 20-point Throat Function Index.

[6] = tested on: patients with acute sore throat and pharyngitis; test: Swollen Throat Scale (SwoTS), same study; assay type: in vivo, human; details: single oral dose, vs placebo
Text: as §1, §2, §3, §4
as §5, with “Scales. […]” for “Scales.”

[7] = tested on: patients with acute sore throat and pharyngitis; test: Quality of Pain Index (QPI, 12 qualities of throat pain), same study; assay type: in vivo, human; details: single oral dose, vs placebo
Text: as §1, §2, §4, §5
The patient will be instructed to swallow and instructed: […]

[8] = tested on: patients with acute sore throat and pharyngitis; test: Definite Improvement Level (DIL), same study; details: single oral dose, placebo 11.1%; for patients who achieved their own Definite Improvement Level on the TSS: Throat Soreness Scale
Description: A randomized, double-blind, placebo-controlled single-dose study was performed. In order to be eligible for the study, patients were required to have a history of an acute sore throat and physical evidence of pharyngitis. A total of 99 patients who met pre-specified inclusion and exclusion criteria, including moderate to severe throat pain intensity, as measured by a score≧7 on the Throat Soreness Scale (TSS), were admitted to the study.
At this visit they were shown each baseline rating scale and asked to indicate which level represented “definite improvement” to them (Definite Improvement Level), the Diary was reviewed for completeness by the Study Nurse, and ongoing evaluation and treatment were provided, if necessary, per standard clinic procedures.
After the patient is shown his/her completed Baseline Throat Soreness Scale, the Study Nurse will point to the number which the patient marked at Baseline and instruct the patient:
“Starting at this level with your sore throat, at and below which number means definite improvement to you?”
Next, the Study Nurse will separately show the patient his/her Baseline Difficulty Swallowing Scale, Swollen Throat Scale, Difficulty Talking Scale, and each of the 10 Quality-of-Pain Scales, with the same instructions for each scale.
Analyses were performed on all 99 patients (“intent-to-treat analyses”). […] Definite Improvement Level comparisons were performed using Fisher's Exact Test. Correlations between each new rating scale and the TSS were performed using Spearman Rank Correlation.

CC(=O)Nc1ccc(O)cc1 [acetaminophen]
reduction in throat soreness (TSS) compared to placebo over 6 hours [1]: significantly greater reduction in throat soreness compared to placebo
time from which TSS scores separated/differed from placebo [1]: 15 min
patients who achieved at least some improvement within 30 minutes (IA) [2]: 8/9
time from which IA scores separated/differed from placebo [2]: 30 min
patients who achieved at least 50% improvement over 6 hours (IA) [2]: 7/9
patients who achieved at least some improvement within 1 hour (IA) [2]: 9/9
reduction in difficulty swallowing (DSS) compared with placebo over 6 hours [3]: significant difference
reduction in difficulty talking (DTS) compared with placebo over 6 hours [4]: significant
reduction in the TFI compared with placebo over 6 hours [5]: significantly greater reduction in the TFI
reduction in throat swelling (SwoTS) compared with placebo over 6 hours [6]: significantly differentiated from placebo
reduction in the QPI compared with placebo over 6 hours [7]: significantly differentiated from placebo
patients who achieved their own Definite Improvement Level on the TSS [8]: 44.4%
patients who achieved their own Definite Improvement Level on the "It hurts" Quality-of-Pain Scale [8]: 55.6%
patients who achieved their own Definite Improvement Level on the Difficulty Swallowing Scale [8]: 55.6%

Cc1ccc(-c2cc(C(F)(F)F)nn2-c2ccc(S(N)(=O)=O)cc2)cc1 [celecoxib]
time from which TSS scores separated/differed from placebo [1]: 30 min
patients who achieved at least some improvement within 30 minutes (IA) [2]: 3/9
time from which IA scores separated/differed from placebo [2]: 45 min
patients who achieved at least 50% improvement over 6 hours (IA) [2]: 8/9
patients who achieved at least some improvement within 1 hour (IA) [2]: 7/9
patients who achieved their own Definite Improvement Level on the TSS [8]: 77.7%
patients who achieved their own Definite Improvement Level on the "It hurts" Quality-of-Pain Scale [8]: 55.6%
patients who achieved their own Definite Improvement Level on the Difficulty Swallowing Scale [8]: 66.7%

CC(C)Cc1ccc(C(C)C(=O)O)cc1 (centres unmarked) [ibuprofen]
reduction in throat soreness (TSS) compared to placebo over 6 hours [1]: trend
time from which TSS scores separated/differed from placebo [1]: 30 min
patients who achieved at least some improvement within 30 minutes (IA) [2]: 6/9
time from which IA scores separated/differed from placebo [2]: 30 min
patients who achieved at least 50% improvement over 6 hours (IA) [2]: 4/9
patients who achieved at least some improvement within 1 hour (IA) [2]: 9/9
reduction in difficulty swallowing (DSS) compared with placebo over 6 hours [3]: greater reduction in difficulty swallowing compared with placebo
patients who achieved their own Definite Improvement Level on the TSS [8]: 44.4%
patients who achieved their own Definite Improvement Level on the "It hurts" Quality-of-Pain Scale [8]: 33.3%
patients who achieved their own Definite Improvement Level on the Difficulty Swallowing Scale [8]: 44.4%

COc1ccc2cc([C@H](C)C(=O)O)ccc2c1 [naproxen, naproxen sodium]
reduction in throat soreness (TSS) compared to placebo over 6 hours [1]: differentiated from placebo
time from which TSS scores separated/differed from placebo [1]: 30 min
patients who achieved at least some improvement within 30 minutes (IA) [2]: 4/9
time from which IA scores separated/differed from placebo [2]: 45 min
patients who achieved at least 50% improvement over 6 hours (IA) [2]: 4/9
patients who achieved at least some improvement within 1 hour (IA) [2]: 7/9
patients who achieved their own Definite Improvement Level on the TSS [8]: 22.2%
patients who achieved their own Definite Improvement Level on the "It hurts" Quality-of-Pain Scale [8]: 33.3%
patients who achieved their own Definite Improvement Level on the Difficulty Swallowing Scale [8]: 33.3%
